Data as given in PubChem BioAssay AID1259407 (Chemical Carcinogenesis Research Information System (CCRIS), 2018).
Active and inactive are the calls of the source. The rule behind the calls is not given here.

System: CCRIS mutagenicity, Ames/micronucleus/aberration tests
Assay: CCRIS mutagenicity studies
[1] = Test System: AMES SALMONELLA TYPHIMURIUM, Strain/Indicator: TA98, Metabolic Activation: NONE, Method: STANDARD PLATE
[2] = Test System: AMES SALMONELLA TYPHIMURIUM, Strain/Indicator: TA100, Metabolic Activation: NONE, Method: STANDARD PLATE
[3] = Test System: AMES SALMONELLA TYPHIMURIUM, Strain/Indicator: TA1535, Metabolic Activation: NONE, Method: STANDARD PLATE
[4] = Test System: AMES SALMONELLA TYPHIMURIUM, Strain/Indicator: TA1537, Metabolic Activation: NONE, Method: STANDARD PLATE
[5] = Test System: AMES SALMONELLA TYPHIMURIUM, Strain/Indicator: TA1538, Metabolic Activation: NONE, Method: STANDARD PLATE
[6] = Test System: AMES SALMONELLA TYPHIMURIUM, Strain/Indicator: TA102, Metabolic Activation: NONE, Method: STANDARD PLATE

Compound: O=c1[nH][nH]c2ccccc12
- mutagenic call (Test System: AMES SALMONELLA TYPHIMURIUM, Strain/Indicator: TA98, Metabolic Activation: HAMSTER, LIVER, S-9, AROCLOR 1254, Method: STANDARD PLATE): inactive; negative
- mutagenic call [1]: inactive; negative
- mutagenic call (Test System: AMES SALMONELLA TYPHIMURIUM, Strain/Indicator: TA98, Metabolic Activation: RAT, LIVER, S-9, AROCLOR 1254, Method: STANDARD PLATE): inactive; negative
- mutagenic call (Test System: AMES SALMONELLA TYPHIMURIUM, Strain/Indicator: TA100, Metabolic Activation: HAMSTER, LIVER, S-9, AROCLOR 1254, Method: STANDARD PLATE): inactive; negative
- mutagenic call [2]: inactive; negative
- mutagenic call (Test System: AMES SALMONELLA TYPHIMURIUM, Strain/Indicator: TA100, Metabolic Activation: RAT, LIVER, S-9, AROCLOR 1254, Method: STANDARD PLATE): inactive; negative
- mutagenic call (Test System: AMES SALMONELLA TYPHIMURIUM, Strain/Indicator: TA1535, Metabolic Activation: HAMSTER, LIVER, S-9, AROCLOR 1254, Method: STANDARD PLATE): inactive; negative
- mutagenic call [3]: inactive; negative
- mutagenic call (Test System: AMES SALMONELLA TYPHIMURIUM, Strain/Indicator: TA1535, Metabolic Activation: RAT, LIVER, S-9, AROCLOR 1254, Method: STANDARD PLATE): inactive; negative
- mutagenic call (Test System: AMES SALMONELLA TYPHIMURIUM, Strain/Indicator: TA1537, Metabolic Activation: HAMSTER, LIVER, S-9, AROCLOR 1254, Method: STANDARD PLATE): inactive; negative
- mutagenic call [4]: inactive; negative
- mutagenic call (Test System: AMES SALMONELLA TYPHIMURIUM, Strain/Indicator: TA1537, Metabolic Activation: RAT, LIVER, S-9, AROCLOR 1254, Method: STANDARD PLATE): inactive; negative
- mutagenic call (Test System: AMES SALMONELLA TYPHIMURIUM, Strain/Indicator: TA1538, Metabolic Activation: HAMSTER, LIVER, S-9, AROCLOR 1254, Method: STANDARD PLATE): inactive; negative
- mutagenic call [5]: inactive; negative
- mutagenic call (Test System: AMES SALMONELLA TYPHIMURIUM, Strain/Indicator: TA1538, Metabolic Activation: RAT, LIVER, S-9, AROCLOR 1254, Method: STANDARD PLATE): inactive; negative
- mutagenic call (Test System: MOUSE LYMPHOMA, Strain/Indicator: L5178Y (TK+/TK-), Metabolic Activation: NONE, Method: SUSPENSION/PLATE): active; positive. reevaluation of results: positive
- mutagenic call (Test System: MOUSE LYMPHOMA, Strain/Indicator: L5178Y (TK+/TK-), Metabolic Activation: RAT, LIVER, S-9, AROCLOR 1254, Method: SUSPENSION/PLATE): inactive; negative. reevaluation of results: negative

Compound: CNC(=O)NO
- mutagenic call [1]: inactive; negative
- mutagenic call [2]: inactive; negative

Compound: CNC(=O)Oc1ccc2c(c1)[C@]1(C)CCN(C)[C@@H]1N2C
- mutagenic call (Test System: AMES SALMONELLA TYPHIMURIUM, Strain/Indicator: TA97, Metabolic Activation: LIVER, S-9 (10%), Method: STANDARD PLATE): inactive; negative
- mutagenic call (Test System: AMES SALMONELLA TYPHIMURIUM, Strain/Indicator: TA97, Metabolic Activation: NONE, Method: STANDARD PLATE): inactive; negative
- mutagenic call (Test System: AMES SALMONELLA TYPHIMURIUM, Strain/Indicator: TA97, Metabolic Activation: S-9, Method: STANDARD PLATE): inactive; negative
- mutagenic call (Test System: AMES SALMONELLA TYPHIMURIUM, Strain/Indicator: TA98, Metabolic Activation: LIVER, S-9 (10%), Method: STANDARD PLATE): inactive; negative
- mutagenic call [1]: inactive; negative
- mutagenic call (Test System: AMES SALMONELLA TYPHIMURIUM, Strain/Indicator: TA98, Metabolic Activation: S-9, Method: STANDARD PLATE): inactive; negative
- mutagenic call (Test System: AMES SALMONELLA TYPHIMURIUM, Strain/Indicator: TA100, Metabolic Activation: LIVER, S-9 (10%), Method: STANDARD PLATE): inactive; negative
- mutagenic call [2]: inactive; negative
- mutagenic call (Test System: AMES SALMONELLA TYPHIMURIUM, Strain/Indicator: TA100, Metabolic Activation: S-9, Method: STANDARD PLATE): inactive; negative
- mutagenic call [6]: inactive; negative
- mutagenic call (Test System: AMES SALMONELLA TYPHIMURIUM, Strain/Indicator: TA102, Metabolic Activation: S-9, Method: STANDARD PLATE): inactive; negative
- mutagenic call (Test System: AMES SALMONELLA TYPHIMURIUM, Strain/Indicator: TA104, Metabolic Activation: LIVER, S-9 (10%), Method: STANDARD PLATE): inactive; negative
- mutagenic call (Test System: AMES SALMONELLA TYPHIMURIUM, Strain/Indicator: TA104, Metabolic Activation: NONE, Method: STANDARD PLATE): inactive; negative
- mutagenic call (Test System: AMES SALMONELLA TYPHIMURIUM, Strain/Indicator: TA104, Metabolic Activation: S-9, Method: STANDARD PLATE): inactive; negative
- mutagenic call (Test System: AMES SALMONELLA TYPHIMURIUM, Strain/Indicator: TA1535, Metabolic Activation: LIVER, S-9 (10%), Method: STANDARD PLATE): inactive; negative
- mutagenic call [3]: inactive; negative
- mutagenic call (Test System: AMES SALMONELLA TYPHIMURIUM, Strain/Indicator: TA1535, Metabolic Activation: S-9, Method: STANDARD PLATE): inactive; negative
- mutagenic call (Test System: AMES SALMONELLA TYPHIMURIUM, Strain/Indicator: TA1537, Metabolic Activation: LIVER, S-9 (10%), Method: STANDARD PLATE): inactive; negative
- mutagenic call [4]: inactive; negative
- mutagenic call (Test System: AMES SALMONELLA TYPHIMURIUM, Strain/Indicator: TA1537, Metabolic Activation: S-9, Method: STANDARD PLATE): inactive; negative
- mutagenic call (Test System: AMES SALMONELLA TYPHIMURIUM, Strain/Indicator: TA1538, Metabolic Activation: LIVER, S-9 (10%), Method: STANDARD PLATE): inactive; negative
- mutagenic call [5]: inactive; negative
- mutagenic call (Test System: AMES SALMONELLA TYPHIMURIUM, Strain/Indicator: TA1538, Metabolic Activation: S-9, Method: STANDARD PLATE): inactive; negative

Compound: C[C@@H]1Cc2ccc(C(=O)N[C@@H](Cc3ccccc3)C(=O)O)c(O)c2C(=O)O1
- mutagenic call (End Point: IN VIVO CHROMOSOMAL ABERRATIONS, Test System: SPLENOCYTES, Species: RAT, Strain/Sex: FISCHER 344/MALE, Route: ORAL (GAVAGE)): inactive; negative
- mutagenic call [6]: inactive; negative
- mutagenic call (Test System: AMES SALMONELLA TYPHIMURIUM, Strain/Indicator: TA102, Metabolic Activation: RAT, LIVER, S-9, AROCLOR 1254, Method: STANDARD PLATE): inactive; negative
